Legend:
[1] = target: T1, human 5-hydroxytryptamine-2C (h5-HT2C) receptor (Homo sapiens, UniProt P28335); assay: [125I]DOI binding to membranes of CHO cells expressing the human 5-HT2C receptor; settings: [125I]DOI radioligand, CHO cell membranes, room temperature 60 min; read-out: 5-HT2C Affinity Ki
T1 construct: expressed in transfected cells; host or cells: CHO (Chinese Hamster Ovary) cells; membranes
T1 sequence (P28335 33-458): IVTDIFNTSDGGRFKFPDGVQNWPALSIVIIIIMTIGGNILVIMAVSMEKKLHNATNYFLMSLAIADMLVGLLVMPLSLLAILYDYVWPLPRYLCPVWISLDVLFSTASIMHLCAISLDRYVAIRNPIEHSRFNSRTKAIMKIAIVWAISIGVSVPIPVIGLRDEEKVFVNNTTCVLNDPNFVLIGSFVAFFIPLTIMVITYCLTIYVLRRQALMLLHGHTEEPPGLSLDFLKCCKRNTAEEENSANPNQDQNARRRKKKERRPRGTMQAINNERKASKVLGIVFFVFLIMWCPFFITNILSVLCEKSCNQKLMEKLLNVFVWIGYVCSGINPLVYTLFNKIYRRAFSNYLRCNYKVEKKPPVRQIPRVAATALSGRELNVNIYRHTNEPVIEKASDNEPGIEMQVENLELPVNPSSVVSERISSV

human 5-HT2C receptor = target: T2, human 5-HT2C receptor (Homo sapiens, UniProt P28335); assay: 5-HT2C receptor-stimulated calcium mobilization (FLIPR) in CHO cells; type: cell-based; settings: for Emax: CHO, read-out: 5-HT2C Function Emax (%); for Emax / 5-HT2C Function Emax (%): percentage of the response observed with a maximally effective concentration of 5-HT; for EC50: calcium mobilization, CHO cells stably expressing human 5-HT2C, read-out: 5-HT2C Function EC50;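 as to all read-outs here: Fluo-3-AM fluorescence read on FLIPR every 1 s, agonist added after 10 baseline reads, response taken as peak minus lowest raw fluorescence count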
T2 sequence (P28335 33-458): T1 sequence (P28335 33-458)

| Ki [1] [µM] | Emax (human 5-HT2C receptor) [%] | EC50 (human 5-HT2C receptor) [µM] | 5-HT2C Function Emax (%) (human 5-HT2C receptor) | Compound |
| --- | --- | --- | --- | --- |
| 0.0031 | 80 | 0.007 | – | CNCC1Cc2cc(OC)cc(-c3ccccc3Cl)c2O1 (racemic) [Example 492, (±)-{[7-(2-chlorophenyl)-5-methoxy-2,3-dihydro-1-benzofuran-2-yl]methyl}methylamine] |
| 0.011 | 90 | 0.008 | – | CNCC1Cc2cc(OC)cc(-c3ccccc3C)c2O1 (racemic) [Example 493, (±)-{[7-(2-methylphenyl)-5-methoxy-2,3-dihydro-1-benzofuran-2-yl]methyl}methylamine] |
| 0.035 | 60 | 0.475 | – | CNCC1Cc2cc(OC)cc(-c3cccc(F)c3F)c2O1 (racemic) [Example 494, (±)-{[7-(2,3-difluorophenyl)-5-methoxy-2,3-dihydro-1-benzofuran-2-yl]methyl}methylamine] |
| 0.041 | 60 | 0.338 | – | CNCC1Cc2cc(OC)cc(-c3cccc(Cl)c3Cl)c2O1 (racemic) [Example 495, (±)-{[7-(2,3-dichlorophenyl)-5-methoxy-2,3-dihydro-1-benzofuran-2-yl]methyl}methylamine] |
| 0.046 | 60 | 0.51 | – | CNCC1Cc2cc(OC)cc(-c3cccc(C)c3C)c2O1 (racemic) [Example 496, (±)-{[7-(2,3-dimethylphenyl)-5-methoxy-2,3-dihydro-1-benzofuran-2-yl]methyl}methylamine] |
| 0.037 | 70 | 0.315 | – | CNCC1Cc2cc(OC)cc(-c3ccc(F)cc3F)c2O1 (racemic) [Example 497, (±)-{[7-(2,4-difluorophenyl)-5-methoxy-2,3-dihydro-1-benzofuran-2-yl]methyl}methylamine] |
| 0.035 | 70 | 0.326 | – | CNCC1Cc2cc(OC)cc(-c3cc(F)ccc3F)c2O1 (racemic) [Example 498, (±)-{[7-(2,5-difluorophenyl)-5-methoxy-2,3-dihydro-1-benzofuran-2-yl]methyl}methylamine] |
| 0.0036 | 90 | 0.057 | – | CNCC1Cc2cc(OC)cc(-c3cc(Cl)ccc3Cl)c2O1 (racemic) [Example 499, (±)-{[7-(2,5-dichlorophenyl)-5-methoxy-2,3-dihydro-1-benzofuran-2-yl]methyl}methylamine] |
| 0.086 | 80 | 0.256 | – | CNCC1Cc2cc(OC)cc(-c3cc(C)ccc3C)c2O1 (racemic) [Example 500, (±)-{[7-(2,5-dimethylphenyl)-5-methoxy-2,3-dihydro-1-benzofuran-2-yl]methyl}methylamine] |
| 0.045 | 70 | 0.07 | – | CNCC1Cc2cc(OC)cc(-c3cc(OC)ccc3OC)c2O1 (racemic) [Example 501, (±)-{[7-(2,5-dimethoxyphenyl)-5-methoxy-2,3-dihydro-1-benzofuran-2-yl]methyl}methylamine] |
| 0.0012 | 90 | 0.027 | – | CNCC1Cc2cc(OC)cc(-c3c(C)cccc3C)c2O1 (racemic) [Example 504, (±)-{[7-(2,6-dimethylphenyl)-5-methoxy-2,3-dihydro-1-benzofuran-2-yl]methyl}methylamine] |
| 0.04 | 80 | 0.384 | – | CNCC1Cc2cc(C(F)(F)F)cc(-c3ccccc3)c2O1 (racemic) [Example 518, (±)-{[N-methyl-1-[7-phenyl-5-(trifluoromethyl)-2,3-dihydro-1-benzofuran-2-yl]methanamine] |
| 0.025 | 90 | 0.05 | – | CNCC1Cc2cc(C(F)(F)F)cc(-c3ccc(OC)cc3OC)c2O1 (racemic) [Example 526, (±)-N-methyl-1-[7-(2,4-dimethoxyphenyl)-5-(trifluoromethyl)-2,3-dihydro-1-benzofuran-2-yl]methanamine] |
| 0.041 | 70 | 0.002 | – | COc1cc2c(c(-c3ccccc3OC)c1)OC(CCN)C2 (racemic) [Example 554, (±)-{2-[7-(2-methoxyphenyl)-5-methoxy-2,3-dihydro-1-benzofuran-2-yl]ethyl}amine] |
| 0.0006 | 80 | 0.004 | – | CNCC1Cc2cccc(-c3c(Cl)cc(Cl)cc3Cl)c2O1 (racemic) [Example 555, (±)-{N-methyl-1-[(7-(2,4,6-trichlorophenyl)-2,3-dihydro-1-benzofuran-2-yl]methanamine] |
| 0.023 | – | 1.49 | – | NCC1Cc2cc(Cl)cc(-c3cccc(F)c3F)c2O1 (single isomer, unassigned) [Example 246, (±)-{[5-chloro-7-(2,3-difluorophenyl)-2,3-dihydro-1-benzofuran-2-yl]methyl}amine] |

| Ki [1] [µM] | Emax (human 5-HT2C receptor) [%] | EC50 (human 5-HT2C receptor) [µM] | 5-HT2C Function Emax (%) (human 5-HT2C receptor) | Compound |
| --- | --- | --- | --- | --- |
| 0.016 | 90 | 0.061 | – | NCC1Cc2c(cccc2-c2ccccc2)O1 (single isomer, unassigned; (+)) [Example 2, (+)-1-(4-phenyl-2,3-dihydro-1-benzofuran-2-yl)methanamine] |
| 0.009 | 90 | 0.208 | – | Cc1ccccc1-c1cccc2c1CC(CN)O2 (single isomer, unassigned; (+)) [Example 5, (+)-1-[4-(2-methylphenyl)-2,3-dihydro-1-benzofuran-2-yl]methanamine] |
| 0.042 | – | 0.179 | 60 | NCC1Cc2cccc(C3CCCC3)c2O1 (single isomer, unassigned; (+)) [Example 10, (+)-(7-cyclopentyl-2,3-dihydro-1-benzofuran-2-yl)methylamine] |
| 0.274 | 65 | 0.451 | – | NCC1Cc2cccc(Cc3ccccc3)c2O1 (single isomer, unassigned; (+)) [Example 16, (+)-1-(7-benzyl-2,3-dihydro-1-benzofuran-2-yl)methanamine] |
| 0.024 | – | 0.178 | 70 | CC(C)c1cccc2c1OC(CN)C2 (single isomer, unassigned; (+)) [Example 20, (+)-(7-isopropyl-2,3-dihydro-1-benzofuran-2-yl)methylamine] |
| 0.009 | – | 0.073 | 80 | Cc1c(Cl)cc(C(C)C)c2c1CC(CN)O2 (single isomer, unassigned; (+)) [Example 23, (+)-1-(5-chloro-7-isopropyl-4-methyl-2,3-dihydro-1-benzofuran-2-yl)methanamine] |
| 0.071 | – | 0.079 | 100 | CC(C)(C)c1cccc2c1OC(CN)C2 (single isomer, unassigned; (+)) [Example 26, (+)-1-(7-tert-butyl-2,3-dihydro-1-benzofuran-2-yl)methanamine] |
| 0.035 | – | 0.229 | 80 | CC(C)(C)c1cc(Cl)cc2c1OC(CN)C2 (single isomer, unassigned; (+)) [Example 29, (+)-1-(7-tert-butyl-5-chloro-2,3-dihydro-1-benzofuran-2-yl)methanamine] |
| 0.001 | 100 | 0.001 | – | NCC1Cc2cccc(-c3ccccc3)c2O1 (single isomer, unassigned; (+)) [Example 37] |
| 0.017 | 100 | 0.162 | – | Cc1cccc(-c2cccc3c2OC(CN)C3)c1 (single isomer, unassigned; (+)) [Example 42, (+)-1-[7-(3-methylphenyl)-2,3-dihydro-1-benzofuran-2-yl]methanamine] |
| 0.002 | 90 | 0.005 | – | NCC1Cc2cccc(-c3ccsc3)c2O1 (single isomer, unassigned; (+)) [Example 45, (+)-1-(7-thien-3-yl-2,3-dihydro-1-benzofuran-2-yl)methanamine] |
| 0.0003 | 100 | 0.0024 | – | Cc1ccccc1-c1cccc2c1OC(CN)C2 (single isomer, unassigned; (+)) [Example 48, (+)-1-[7-(2-methylphenyl)-2,3-dihydro-1-benzofuran-2-yl]methanamine] |
| 0.003 | – | 0.048 | 70 | NCC1Cc2cccc(-c3ccccc3C(F)(F)F)c2O1 (single isomer, unassigned; (+)) [Example 55, (+)-1-{7-[2-(trifluoromethyl)phenyl]-2,3-dihydro-1-benzofuran-2-yl}methanamine] |
| 0.009 | – | 0.313 | 60 | Cc1cccc(C)c1-c1cccc2c1OC(CN)C2 (single isomer, unassigned; (+)) [Example 58, (+)-1-[7-(2,6-dimethylphenyl)-2,3-dihydro-1-benzofuran-2-yl]methanamine] |
| 0.04 | 70 | 0.13 | – | CC(C)c1ccccc1-c1cccc2c1OC(CN)C2 (single isomer, unassigned; (+)) [Example 62, (+)-[7-(2-isopropylphenyl)-2,3-dihydro-1-benzofuran-2-yl]methylamine] |

Source: patent publication US7435837B2, “Dihydrobenzofuranyl alkanamine derivatives and methods for using same” (Wyeth, priority 2003, dated 2008)
